Assay results published in PubChem BioAssay AID2060511 (Molecular Pharmacology Branch, DTP, NCI, 2025).

Test system: 422866-222-R5-J1-PDC spheroids with HUVEC/MSC, viability
Experiment: Anticancer human tumor 422866-222-R5-J1-PDC patient-derived pancreatic adenocarcinoma cell line growth inhibition [GQUAD]
Conditions: for IC50: curve of first compound; for viability, T/C: stronger effect = lower value
Excerpt: DNA G-quadruplex Stabilizer Agents in Combinations in Complex Spheroids
A high-throughput screen of multi-cell type tumor spheroids was designed to identify active combinations of DNA G-quadruplex stabilizer agents and targeted small molecules. Complex spheroids include a stromal component modeled by human endothelial cells (HUVEC) and fibroblasts modeled by human mesenchymal stem cells (MSCs). The concentration ranges selected for each drug and investigational agent were based upon clinically achievable concentrations if the clinical Cmax of the agent was known.
Compounds. The drugs and investigational agents: pidnarulex (CX-5461; NSC782164), APTO-253 (NSC789042), BRACO-19 (NSC847499), peposertib (NSC802822), ceralasertib (NSC780249), elimusertib (NSC800525), camonsertib (NSC841442), AZD-1390 (NSC803789), olaparib (NSC753686), talazoparib (NSC767125), ART-558 (NSC835418), sotorasib (NSC818433), MRTX-1133 (NSC836407), SN-38 (NSC673596), topotecan (NSC609699), etoposide (NSC141540), doxorubicin (NSC123127), gemcitabine (NSC613327), 5-fluorouracil (NSC19893), paclitaxel (NSC125973), vemurafenib (NSC761431), panobinostat (NSC761190), R-306465 (JNJ-16241199; NSC773264), adavosertib (NSC754352), TP-3654 (NSC805149), carboplatin (NSC241240), KSQ-4279 (NSC840948), and staurosporine (NSC755774) were obtained from the National Cancer Institute (NCI) Developmental Therapeutics Program Chemical Repository (34). The FDA-approved anticancer drug set is available from the NCI Developmental Therapeutics Program. […] The stock solutions were prepared in dimethyl sulfoxide (DMSO, Sigma-Aldrich, St. Louis, MO, cat. D2650) at 800-fold the tested concentration and stored at -70 degrees C prior to their use. All drugs and investigational agents were tested over a range starting from a high concentration at or near the clinical Cmax and decreasing in half-log increments. If the clinical Cmax for an agent had not been determined, the highest concentration tested was 10 microM.
2.3 Cell Culture. All cells were maintained in an incubator at 37 degrees C and 5% CO2 with 95% humidity. The PDC lines were cultured according to standard operating procedures established by the NCI PDMR. All PDCs were thawed and cultured in Matrigel-coated flasks prepared with a working solution of 1X Ham's F-12 nutrient mix, without supplementation (Invitrogen, cat. 11765054), 100 U/mL penicillin-streptomycin (Invitrogen, cat. 15140122), and 2.5% Matrigel (Corning Inc., cat. 354248) for the first three passages. The 857933-349-R-J2-PDC line was cultured in 6C/Colon 1B media, which includes advanced DMEM/F-12 (Thermo Fisher Scientific, cat. 12634028), 10 mM HEPES (Thermo Fisher Scientific, cat. 15630080), 1X GlutaMAX supplement (Thermo Fisher Scientific, cat. 35050061), 0.1 mg/mL primocin (InvivoGen, cat. ant-pm-2), 10% defined fetal bovine serum, heat inactivated (HyClone Laboratories Inc., cat. SH30070.03HI), 50% L-WRN conditioned media (ATCC, cat. CRL-3276), 1.25 mM N-Acetyl-L-cysteine (Sigma-Aldrich, cat. A9165), 10 mM nicotinamide (Sigma-Aldrich, cat. N0636), 1X B-27 supplement (Thermo Fisher Scientific, cat. 17504044), 1X N-2 supplement (Thermo Fisher Scientific, cat. 17502048), 10 microM Y-27632 dihydrochloride (Tocris Bioscience, cat. 1254), and 50 ng/mL human EGF recombinant protein (Thermo Fisher Scientific, cat. PHG0311). The 485176-168-R4-J1-PDC line was cultured in Panc media, which includes all 6C/Colon 1B media components plus 100 ng/mL human FGF-10 (Thermo Fisher Scientific, cat. 100-26), 500 nM SB-431542 (Selleckchem, cat. S1067), and gastrin (Tocris, cat. 3006).
[…]

[1] = second compound 0.0316 µM, first compound 0.0316 µM
[2] = second compound 0.0316 µM, first compound 0.316 µM
[3] = second compound 0.1 µM, first compound 0.0316 µM
[4] = second compound 0.1 µM, first compound 0.316 µM
[5] = second compound 0.316 µM, first compound 0.0316 µM
[6] = second compound 0.316 µM, first compound 0.316 µM
[7] = second compound 1 µM, first compound 0.0316 µM
[8] = second compound 1 µM, first compound 0.316 µM
[9] = second compound 3.16 µM, first compound 0.0316 µM
[10] = second compound 3.16 µM, first compound 0.316 µM
[11] = second compound 10 µM, first compound 0.0316 µM
[12] = second compound 10 µM, first compound 0.316 µM
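Also: spheroids exposed to compounds for seven days before reading.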
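For viability, T/C in this document: percent viability relative to DMSO vehicle control taken as 100%.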

In the case of `C=CC(=O)N1CCN(c2nc(=O)n(-c3c(C)ccnc3C(C)C)c3nc(-c4c(O)cccc4F)c(F)cc23)C(C)C1` (centres undefined) + CN(C)c1ccc(Nc2c3ccc(NC(=O)CCN4CCCC4)cc3nc3cc(NC(=O)CCN4CCCC4)ccc23)cc1, the IC50 (second compound 0.0316 µM) is reported as < 31.6 nM, the IC50 (second compound 0.1 µM) is reported as < 31.6 nM and the IC50 (second compound 0.316 µM) is reported as < 31.6 nM. The IC50 (second compound 1 µM) was < 31.6 nM, the IC50 (second compound 3.16 µM) was < 31.6 nM and the IC50 (second compound 10 µM) was < 31.6 nM. It also gave a viability, T/C [1] of 39.3%, a viability, T/C (second compound 0.0316 µM, first compound 0.1 µM) of 32.5% and a viability, T/C [2] of 29.6%. For the same compound, the viability, T/C (second compound 0.0316 µM, first compound 1 µM) was 25.2%, the viability, T/C (second compound 0.0316 µM, first compound 3.16 µM) was 26.4% and the viability, T/C (second compound 0.0316 µM, first compound 10 µM) was 30%. The viability, T/C [3] was 37.9%, the viability, T/C (second compound 0.1 µM, first compound 0.1 µM) was 29.4% and the viability, T/C [4] was 26.6%. For the same compound, the viability, T/C (second compound 0.1 µM, first compound 1 µM) was 22.7%, the viability, T/C (second compound 0.1 µM, first compound 3.16 µM) was 27.3% and the viability, T/C (second compound 0.1 µM, first compound 10 µM) was 26.4%. The viability, T/C [5] was 41.9%, the viability, T/C (second compound 0.316 µM, first compound 0.1 µM) was 25.2% and the viability, T/C [6] was 29.9%. The viability, T/C (second compound 0.316 µM, first compound 1 µM) was 25.7%, the viability, T/C (second compound 0.316 µM, first compound 3.16 µM) was 30.7% and the viability, T/C (second compound 0.316 µM, first compound 10 µM) was 28.7%. For the same compound, the viability, T/C [7] was 27.8%, the viability, T/C (second compound 1 µM, first compound 0.1 µM) was 27.9% and the viability, T/C [8] was 25.1%. It also gave a viability, T/C (second compound 1 µM, first compound 1 µM) of 23.9%, a viability, T/C (second compound 1 µM, first compound 3.16 µM) of 24.7% and a viability, T/C (second compound 1 µM, first compound 10 µM) of 28%. It also gave a viability, T/C [9] of 31.2%, a viability, T/C (second compound 3.16 µM, first compound 0.1 µM) of 25.5% and a viability, T/C [10] of 24.3%. It also gave a viability, T/C (second compound 3.16 µM, first compound 1 µM) of 25.3%, a viability, T/C (second compound 3.16 µM, first compound 3.16 µM) of 25% and a viability, T/C (second compound 3.16 µM, first compound 10 µM) of 28.3%. It also gave a viability, T/C [11] of 29.5%, a viability, T/C (second compound 10 µM, first compound 0.1 µM) of 27.3% and a viability, T/C [12] of 25.7%. It also gave a viability, T/C (second compound 10 µM, first compound 1 µM) of 29%, a viability, T/C (second compound 10 µM, first compound 3.16 µM) of 28.8% and a viability, T/C (second compound 10 µM, first compound 10 µM) of 29.1%.
`CCc1c2c(nc3ccc(O)cc13)-c1cc3c(c(=O)n1C2)COC(=O)[C@]3(O)CC` + CN(C)c1ccc(Nc2c3ccc(NC(=O)CCN4CCCC4)cc3nc3cc(NC(=O)CCN4CCCC4)ccc23)cc1 showed an IC50 (second compound 0.0316 µM) of 6.8 nM, an IC50 (second compound 0.1 µM) of 49 nM and an IC50 (second compound 0.316 µM) of 2.86 nM. For the same compound, the IC50 (second compound 1 µM) was 2.41 nM, the IC50 (second compound 3.16 µM) was 110 nM and the IC50 (second compound 10 µM) was > 316 nM. For the same compound, the viability, T/C (second compound 0.0316 µM, first compound 0.000999 µM) was 64.9%, the viability, T/C (second compound 0.0316 µM, first compound 0.00316 µM) was 54.1% and the viability, T/C (second compound 0.0316 µM, first compound 0.00999 µM) was 46.6%. It also gave a viability, T/C [1] of 46.7%, a viability, T/C (second compound 0.0316 µM, first compound 0.0999 µM) of 48% and a viability, T/C [2] of 47.1%. For the same compound, the viability, T/C (second compound 0.1 µM, first compound 0.000999 µM) was 63.6%, the viability, T/C (second compound 0.1 µM, first compound 0.00316 µM) was 46.9% and the viability, T/C (second compound 0.1 µM, first compound 0.00999 µM) was 46.7%. It also gave a viability, T/C [3] of 57.1%, a viability, T/C (second compound 0.1 µM, first compound 0.0999 µM) of 57.8% and a viability, T/C [4] of 39.2%. The viability, T/C (second compound 0.316 µM, first compound 0.000999 µM) was 77.5%, the viability, T/C (second compound 0.316 µM, first compound 0.00316 µM) was 47.2% and the viability, T/C (second compound 0.316 µM, first compound 0.00999 µM) was 46.4%. The viability, T/C [5] was 55.1%, the viability, T/C (second compound 0.316 µM, first compound 0.0999 µM) was 50.5% and the viability, T/C [6] was 37.3%. For the same compound, the viability, T/C (second compound 1 µM, first compound 0.000999 µM) was 54%, the viability, T/C (second compound 1 µM, first compound 0.00316 µM) was 43.4% and the viability, T/C (second compound 1 µM, first compound 0.00999 µM) was 45.2%. The viability, T/C [7] was 57.1%, the viability, T/C (second compound 1 µM, first compound 0.0999 µM) was 46.8% and the viability, T/C [8] was 40.5%. The viability, T/C (second compound 3.16 µM, first compound 0.000999 µM) was 58.6%, the viability, T/C (second compound 3.16 µM, first compound 0.00316 µM) was 54.3% and the viability, T/C (second compound 3.16 µM, first compound 0.00999 µM) was 40.6%. It also gave a viability, T/C [9] of 48.5%, a viability, T/C (second compound 3.16 µM, first compound 0.0999 µM) of 63.6% and a viability, T/C [10] of 43.9%. For the same compound, the viability, T/C (second compound 10 µM, first compound 0.000999 µM) was 58.4%, the viability, T/C (second compound 10 µM, first compound 0.00316 µM) was 49.7% and the viability, T/C (second compound 10 µM, first compound 0.00999 µM) was 58.3%. It also gave a viability, T/C [11] of 50.8%, a viability, T/C (second compound 10 µM, first compound 0.0999 µM) of 64.5% and a viability, T/C [12] of 41%.
